Earlier results as cited in article PMC8730323 (The Journal of organic chemistry, 2021).

Key:
HL-60 cell line = conditions: read-out: IC50 against HL-60 cell line; leukemia cells
NCL-H460 cell line = conditions: read-out: IC50 against human lung cancer NCL-H460 cell line

Molecule	IC50 (HL-60 cell line) [µM]	Toxicity to normal cells compared with cancer cells (in words) (normal cells)	IC50 (NCL-H460 cell line) [µM]
Cc1c(O)cc(C[C@]23C[C@H](C[C@H](C)O2)c2c4c(c(O)c(C)c2O3)CO[C@@]2(C4)C[C@@H](O)C[C@H](C)O2)c(C=O)c1O [(+)-1, (+)-peniciketal A]	3.2	less toxic	
(−)-diocollettines A [(−)-5]			20.2
